The source of these data is ChEMBL document CHEMBL1157115, “Macrocyclic BACE inhibitors: Optimization of a micromolar hit to nanomolar leads” (Bioorg Med Chem Lett, 2010).

Data set [1] has as its target T1, Beta-secretase 1 (Homo sapiens, UniProt P56817). Nature of the data set: Inhibition of BACE1 assessed as amyloid beta (1-40) production.
In data set [2] the target is T1, Beta-secretase 1.
The test system of data set [3] is Mus musculus. Nature of the data set: Reduction in amyloid beta in mouse plasma at 50 mg/kg, po. Format: ADME, organism-based. Set-up: dose 50 mg/kg, route oral; scale not given: the % may be the effect or the level left. As to conditions: in vivo.
Data set [4] deals with Mus musculus. Nature of the data set: Reduction in amyloid beta in mouse plasma at 10 mg/kg, po. Format: ADME, organism-based. Set-up: dose 10 mg/kg, route oral; scale not given: the % may be the effect or the level left. As to conditions: in vivo.
Data set [5] deals with Mus musculus. Nature of the data set: Reduction in amyloid beta in mouse plasma at 25 mg/kg, po. It counts as ADME, organism-based. Also on record: dose 25 mg/kg, route oral; scale not given: the % may be the effect or the level left. As to conditions: in vivo.

T1 sequence (P56817 whole entry): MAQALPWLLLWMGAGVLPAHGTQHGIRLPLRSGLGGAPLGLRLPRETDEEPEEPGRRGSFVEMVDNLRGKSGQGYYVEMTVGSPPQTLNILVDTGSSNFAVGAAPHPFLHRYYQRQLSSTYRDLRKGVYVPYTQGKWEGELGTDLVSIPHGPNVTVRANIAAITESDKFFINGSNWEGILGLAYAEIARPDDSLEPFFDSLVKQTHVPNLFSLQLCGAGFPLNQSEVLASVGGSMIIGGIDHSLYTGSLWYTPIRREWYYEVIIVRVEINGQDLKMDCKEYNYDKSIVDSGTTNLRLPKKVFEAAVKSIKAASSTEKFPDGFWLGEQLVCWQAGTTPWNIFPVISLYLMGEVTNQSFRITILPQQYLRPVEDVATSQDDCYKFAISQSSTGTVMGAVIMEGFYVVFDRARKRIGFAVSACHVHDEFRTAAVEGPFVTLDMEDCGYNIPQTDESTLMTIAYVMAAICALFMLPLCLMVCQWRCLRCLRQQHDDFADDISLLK

`NC1=Nc2cc(F)c3cc2CN1[C@H](C1CCCCC1)CCC(=O)N(C1CCCCC1)CCc1cccc(c1)O3`: the IC50 in data set [1] was determined as 30 nM. The Ki in data set [2] turned out to be 8 nM.
Turning to `NC1=Nc2cnc3cc2CN1[C@H](C1CCCCC1)CCC(=O)N(C1CCCCC1)CCc1cccc(c1)O3`, in data set [1], the IC50 was 7 nM. This compound showed a Ki in data set [2] of 5 nM.
Turning to `CC(C)[C@@H]1CCC(=O)N(C2CCOCC2)CCc2cccc(c2)Oc2ccc3c(c2)CN1C(N)=N3`, in data set [1], the IC50 is 685 nM.
For the compound `NC1=Nc2ccc3cc2CN1[C@H](C1CCCCC1)CCC(=O)N(C1CCCCC1)CCc1cccc(c1)O3`, the results for the Activity in data set [3], in data set [4] and in data set [5] were 23%, 13% and 22%, respectively.
